Laboratory results from patent US10227357B2, “Compounds and methods for kinase modulation, and indications therefor” (Plexxikon Inc., priority 2012, dated 2019).

Key:
c-kit kinase = biological target: T1, c-kit kinase (Homo sapiens, UniProt P10721); test: c-Kit biochemical assay, AlphaScreen, 10 μM ATP; details: c-kit biochemical inhibitory activity; read-out: Biochemical activity (IC50 μM) Kit
T1 construct: The c-kit (or kinase domain thereof) is an active kinase in AlphaScreen; poly-Histidine tag (in-house protein only) (cleaved yes); host or cells: E. coli BL21(DE3)RIL, co-expressed with PTP1B
Summary of the method: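 His-tagged c-Kit expressed in E. coli with co-expressed PTP1B (dephosphorylated), tag removed; 0.1 ng per reaction with biotinylated-peptide substrate in 50 mM HEPES pH 7.2, 5 mM MgCl2, 5 mM MnCl2, 5% DMSO, 10 μM ATP, 1 h at room temperature. Phosphorylation detected by AlphaScreen (streptavidin donor, PY20 acceptor beads); IC50 from 8-point 1:3 dilution series.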

c-kit mutant D816V = biological target: T2, c-kit mutant D816V (Homo sapiens, UniProt P10721, D816V/DEL694-753); test: c-Kit mutant D816V biochemical assay, AlphaScreen; details: c-kit D816V biochemical inhibitory activity; read-out: Biochemical activity (IC50 μM) Kit D816V
T2 construct: residues 551-934, kinase insertion domain residues 694-753 deleted; 6x-histidine (N); made in house; host or cells: E. coli Arctic Express (DE3) RIL (Stratagene)
Summary of the method: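 Purified His-tagged c-Kit D816V (E. coli-expressed) assayed in 25 mM HEPES pH 7.2 with Mg/Mn, 5% DMSO and 10 μM ATP, 30 min at room temperature, 8-point 1:3 dilutions. Phosphorylation detected by AlphaScreen with streptavidin donor and PY20 acceptor beads; IC50 from signal versus concentration.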

T1 sequence (P10721 26-976): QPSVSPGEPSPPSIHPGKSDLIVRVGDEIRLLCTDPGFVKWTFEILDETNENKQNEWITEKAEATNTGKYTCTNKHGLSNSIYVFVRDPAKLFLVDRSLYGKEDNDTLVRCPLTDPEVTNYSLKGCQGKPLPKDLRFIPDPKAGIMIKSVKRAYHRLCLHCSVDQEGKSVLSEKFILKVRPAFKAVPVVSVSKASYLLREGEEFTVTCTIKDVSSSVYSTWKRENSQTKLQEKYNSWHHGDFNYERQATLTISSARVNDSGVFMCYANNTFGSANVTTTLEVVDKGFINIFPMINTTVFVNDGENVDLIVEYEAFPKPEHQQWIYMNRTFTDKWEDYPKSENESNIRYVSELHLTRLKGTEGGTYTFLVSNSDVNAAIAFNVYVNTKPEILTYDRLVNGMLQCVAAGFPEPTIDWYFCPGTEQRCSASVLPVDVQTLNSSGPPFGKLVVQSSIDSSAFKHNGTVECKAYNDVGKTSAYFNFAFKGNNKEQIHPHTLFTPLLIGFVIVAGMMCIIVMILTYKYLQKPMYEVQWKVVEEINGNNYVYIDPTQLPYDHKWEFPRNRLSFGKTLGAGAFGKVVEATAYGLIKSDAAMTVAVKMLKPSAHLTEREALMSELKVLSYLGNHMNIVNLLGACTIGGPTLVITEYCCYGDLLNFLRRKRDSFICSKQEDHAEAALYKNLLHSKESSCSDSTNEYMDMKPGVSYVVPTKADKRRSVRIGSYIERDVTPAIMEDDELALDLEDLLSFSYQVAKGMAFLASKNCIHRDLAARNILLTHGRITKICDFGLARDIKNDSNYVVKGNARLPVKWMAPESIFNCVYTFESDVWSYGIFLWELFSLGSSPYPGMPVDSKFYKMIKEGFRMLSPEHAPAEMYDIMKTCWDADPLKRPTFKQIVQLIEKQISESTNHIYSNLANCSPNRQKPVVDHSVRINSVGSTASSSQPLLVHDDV
T2 sequence (P10721 with tags, fused parts or gaps DEL694-753/D816V): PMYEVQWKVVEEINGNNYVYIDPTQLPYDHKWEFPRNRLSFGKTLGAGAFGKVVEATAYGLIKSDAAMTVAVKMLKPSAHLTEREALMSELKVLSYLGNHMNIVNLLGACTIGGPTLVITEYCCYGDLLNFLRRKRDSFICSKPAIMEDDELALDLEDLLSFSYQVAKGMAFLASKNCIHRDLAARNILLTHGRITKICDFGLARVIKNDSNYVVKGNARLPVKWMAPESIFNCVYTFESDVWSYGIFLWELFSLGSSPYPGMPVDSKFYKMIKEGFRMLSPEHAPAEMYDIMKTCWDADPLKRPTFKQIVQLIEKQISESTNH

Structure (SMILES) | IC50 (c-kit kinase) | IC50 (c-kit mutant D816V)
C[C@H](NC(=O)N1CCN(c2ncnc3[nH]c(-c4cnn(C)c4)cc23)CC1)c1ccc(F)cc1 [P-0094, N-[(1S)-1-(4-fluorophenyl)ethyl]-4-[6-(1-methylpyrazol-4-yl)-7H-pyrrolo[2,3-d]pyrimidin-4-yl]piperazine-1-carboxamide] | 1 to 10 µM | 0.0001 to 1 µM
C[C@H](NC(=O)N1CCN(c2ncnc3[nH]c(-c4cnn(C)c4)cc23)CC1)c1ccc(Cl)cc1 [P-0095, N-[(1S)-1-(4-chlorophenyl)ethyl]-4-[6-(1-methylpyrazol-4-yl)-7H-pyrrolo[2,3-d]pyrimidin-4-yl]piperazine-1-carboxamide] | 0.0001 to 1 µM | 0.0001 to 1 µM
Cn1cc(-c2cc3c(N4CCN(C(=O)Nc5ccc(F)cc5)CC4)ncnc3[nH]2)cn1 [P-0096, N-(4-fluorophenyl)-4-[6-(1-methylpyrazol-4-yl)-7H-pyrrolo[2,3-d]pyrimidin-4-yl]piperazine-1-carboxamide] | 0.0001 to 1 µM | 0.0001 to 1 µM
Cn1cc(-c2cc3c(N4CCN(C(=O)NCc5ccc(Cl)cc5)CC4)ncnc3[nH]2)cn1 [P-0097, N-[(4-chlorophenyl)methyl]-4-[6-(1-methylpyrazol-4-yl)-7H-pyrrolo[2,3-d]pyrimidin-4-yl]piperazine-1-carboxamide] | 0.0001 to 1 µM | 0.0001 to 1 µM
O=C(NS(=O)(=O)c1ccc(Cl)cc1)N1CCN(c2ncnc3[nH]c(-c4ccc(F)cc4)cc23)CC1 [P-0098, N-(4-chlorophenyl)sulfonyl-4-[6-(4-fluorophenyl)-7H-pyrrolo[2,3-d]pyrimidin-4-yl]piperazine-1-carboxamide] | 1 to 10 µM | 1 to 10 µM
NS(=O)(=O)c1ccc(-c2cc3c(N4CCN(C(=O)NCc5ccc(F)cc5)CC4)ncnc3[nH]2)cc1 [P-0099, N-[(4-fluorophenyl)methyl]-4-[6-(4-sulfamoylphenyl)-7H-pyrrolo[2,3-d]pyrimidin-4-yl]piperazine-1-carboxamide] | 1 to 10 µM | 0.0001 to 1 µM
NS(=O)(=O)c1ccc(-c2cc3c(N4CCN(C(=O)Nc5ccc(OC(F)(F)F)cc5)CC4)ncnc3[nH]2)cc1 [P-0100, 4-[6-(4-sulfamoylphenyl)-7H-pyrrolo[2,3-d]pyrimidin-4-yl]-N-[4-(trifluoromethoxy)phenyl]piperazine-1-carboxamide] | 0.0001 to 1 µM | 1 to 10 µM
O=C(NCc1ccc(F)cc1)N1CCN(c2ncnc3[nH]c(-c4ccncc4)cc23)CC1 [P-0101, N-[(4-fluorophenyl)methyl]-4-[6-(4-pyridyl)-7H-pyrrolo[2,3-d]pyrimidin-4-yl]piperazine-1-carboxamide] | 1 to 10 µM | 0.0001 to 1 µM
O=C(Nc1ccc(OC(F)(F)F)cc1)N1CCN(c2ncnc3[nH]c(-c4ccncc4)cc23)CC1 [P-0102, 4-[6-(4-pyridyl)-7H-pyrrolo[2,3-d]pyrimidin-4-yl]-N-[4-(trifluoromethoxy)phenyl]piperazine-1-carboxamide] | 0.0001 to 1 µM | 1 to 10 µM
Cc1ccc(-c2cc3c(N4CCN(C(=O)NCc5ccc(F)cc5)CC4)ncnc3[nH]2)cn1 [P-0103, N-[(4-fluorophenyl)methyl]-4-[6-(6-methyl-3-pyridyl)-7H-pyrrolo[2,3-d]pyrimidin-4-yl]piperazine-1-carboxamide] | 1 to 10 µM | 0.0001 to 1 µM
COc1cc(-c2cc3c(N4CCN(C(=O)NCc5ccc(F)cc5)CC4)ncnc3[nH]2)ccn1 [P-0104, N-[(4-fluorophenyl)methyl]-4-[6-(2-methoxy-4-pyridyl)-7H-pyrrolo[2,3-d]pyrimidin-4-yl]piperazine-1-carboxamide] | 10 to 200 µM | 1 to 10 µM
NS(=O)(=O)c1cccc(-c2cc3c(N4CCN(C(=O)NCc5ccc(F)cc5)CC4)ncnc3[nH]2)c1 [P-0105, N-[(4-fluorophenyl)methyl]-4-[6-(3-sulfamoylphenyl)-7H-pyrrolo[2,3-d]pyrimidin-4-yl]piperazine-1-carboxamide] | 1 to 10 µM | 0.0001 to 1 µM
COc1ncc(-c2cc3c(N4CCN(C(=O)NCc5ccc(F)cc5)CC4)ncnc3[nH]2)cn1 [P-0106, N-[(4-fluorophenyl)methyl]-4-[6-(2-methoxypyrimidin-5-yl)-7H-pyrrolo[2,3-d]pyrimidin-4-yl]piperazine-1-carboxamide] | 1 to 10 µM | 1 to 10 µM
CS(=O)(=O)Nc1cccc(-c2cc3c(N4CCN(C(=O)NCc5ccc(F)cc5)CC4)ncnc3[nH]2)c1 [P-0107, N-[(4-fluorophenyl)methyl]-4-[6-[3-(methanesulfonamido)phenyl]-7H-pyrrolo[2,3-d]pyrimidin-4-yl]piperazine-1-carboxamide] | 1 to 10 µM | 0.0001 to 1 µM
NC(=O)c1cccc(-c2cc3c(N4CCN(C(=O)NCc5ccc(F)cc5)CC4)ncnc3[nH]2)c1 [P-0108, 4-[6-(3-carbamoylphenyl)-7H-pyrrolo[2,3-d]pyrimidin-4-yl]-N-[(4-fluorophenyl)methyl]piperazine-1-carboxamide] | 1 to 10 µM | 0.0001 to 1 µM
N#Cc1ccc(-c2cc3c(N4CCN(C(=O)NCc5ccc(F)cc5)CC4)ncnc3[nH]2)cc1 [P-0109, 4-[6-(4-cyanophenyl)-7H-pyrrolo[2,3-d]pyrimidin-4-yl]-N-[(4-fluorophenyl)methyl]piperazine-1-carboxamide] | 10 to 200 µM | 1 to 10 µM
N#Cc1cccc(-c2cc3c(N4CCN(C(=O)NCc5ccc(F)cc5)CC4)ncnc3[nH]2)c1 [P-0110, 4-[6-(3-cyanophenyl)-7H-pyrrolo[2,3-d]pyrimidin-4-yl]-N-[(4-fluorophenyl)methyl]piperazine-1-carboxamide] | 10 to 200 µM | 1 to 10 µM
O=C(Nc1ccc(OC(F)(F)F)cc1)N1CCN(c2ncnc3[nH]c(-c4ccc(C5CC5)nc4)cc23)CC1 [P-0111, 4-[6-(6-cyclopropyl-3-pyridyl)-7H-pyrrolo[2,3-d]pyrimidin-4-yl]-N-[4-(trifluoromethoxy)phenyl]piperazine-1-carboxamide] | 1 to 10 µM | 10 to 200 µM
O=C(Nc1ccc(OC(F)(F)F)cc1)N1CCN(c2ncnc3[nH]c(-c4cnc(C5CC5)nc4)cc23)CC1 [P-0112, 4-[6-(2-cyclopropylpyrimidin-5-yl)-7H-pyrrolo[2,3-d]pyrimidin-4-yl]-N-[4-(trifluoromethoxy)phenyl]piperazine-1-carboxamide] | 1 to 10 µM | 10 to 200 µM
N#CC1(c2ccc(-c3cc4c(N5CCN(C(=O)Nc6ccc(OC(F)(F)F)cc6)CC5)ncnc4[nH]3)cc2)CC1 [P-0113, 4-[6-[4-(1-cyanocyclopropyl)phenyl]-7H-pyrrolo[2,3-d]pyrimidin-4-yl]-N-[4-(trifluoromethoxy)phenyl]piperazine-1-carboxamide] | 0.0001 to 1 µM | 1 to 10 µM
CN(C)c1ccc(-c2cc3c(N4CCN(C(=O)Nc5ccc(OC(F)(F)F)cc5)CC4)ncnc3[nH]2)cn1 [P-0114, 4-[6-[6-(dimethylamino)-3-pyridyl]-7H-pyrrolo[2,3-d]pyrimidin-4-yl]-N-[4-(trifluoromethoxy)phenyl]piperazine-1-carboxamide] | 0.0001 to 1 µM | 1 to 10 µM
Cc1ccc(-c2cc3c(N4CCN(C(=O)Nc5ccc(OC(F)(F)F)cc5)CC4)ncnc3[nH]2)cn1 [P-0115, 4-[6-(6-methyl-3-pyridyl)-7H-pyrrolo[2,3-d]pyrimidin-4-yl]-N-[4-(trifluoromethoxy)phenyl]piperazine-1-carboxamide] | 0.0001 to 1 µM | 10 to 200 µM
CNC(=O)c1cccc(-c2cc3c(N4CCN(C(=O)Nc5ccc(OC(F)(F)F)cc5)CC4)ncnc3[nH]2)c1 [P-0116, 4-[6-[3-(methylcarbamoyl)phenyl]-7H-pyrrolo[2,3-d]pyrimidin-4-yl]-N-[4-(trifluoromethoxy)phenyl]piperazine-1-carboxamide] | 0.0001 to 1 µM | 10 to 200 µM
COc1cc(-c2cc3c(N4CCN(C(=O)Nc5ccc(OC(F)(F)F)cc5)CC4)ncnc3[nH]2)ccn1 [P-0117, 4-[6-(2-methoxy-4-pyridyl)-7H-pyrrolo[2,3-d]pyrimidin-4-yl]-N-[4-(trifluoromethoxy)phenyl]piperazine-1-carboxamide] | 0.0001 to 1 µM | 10 to 200 µM
COc1ccc(-c2cc3c(N4CCN(C(=O)Nc5ccc(OC(F)(F)F)cc5)CC4)ncnc3[nH]2)cn1 [P-0118, 4-[6-(6-methoxy-3-pyridyl)-7H-pyrrolo[2,3-d]pyrimidin-4-yl]-N-[4-(trifluoromethoxy)phenyl]piperazine-1-carboxamide] | 0.0001 to 1 µM | 10 to 200 µM
CS(=O)(=O)Nc1cccc(-c2cc3c(N4CCN(C(=O)Nc5ccc(OC(F)(F)F)cc5)CC4)ncnc3[nH]2)c1 [P-0119, 4-[6-[3-(methanesulfonamido)phenyl]-7H-pyrrolo[2,3-d]pyrimidin-4-yl]-N-[4-(trifluoromethoxy)phenyl]piperazine-1-carboxamide] | 0.0001 to 1 µM | 1 to 10 µM
CC(=O)Nc1cccc(-c2cc3c(N4CCN(C(=O)Nc5ccc(OC(F)(F)F)cc5)CC4)ncnc3[nH]2)c1 [P-0120, 4-[6-(3-acetamidophenyl)-7H-pyrrolo[2,3-d]pyrimidin-4-yl]-N-[4-(trifluoromethoxy)phenyl]piperazine-1-carboxamide] | 0.0001 to 1 µM | 1 to 10 µM
